Results taken from ChEMBL document CHEMBL2046283, “Iotrochamides A and B, antitrypanosomal compounds from the Australian marine sponge Iotrochota sp” (Bioorg Med Chem Lett, 2012).

Key:
[1] = Growth inhibition of human HEK293 cells at 50 uM after 48 hrs by alamar blue assay relative to control; format: cell-based; conditions: read-out: GI
[2] = tested on: Trypanosoma brucei brucei; assay: Antitrypanosomal activity against Trypanosoma brucei brucei BS427 after 48 hrs by alamar blue assay; format: functional, organism-based; conditions: BS427, 48 h
[3] = Growth inhibition of human HEK293 cells at 70 uM after 48 hrs by alamar blue assay relative to control; format: cell-based; conditions: read-out: GI

IC50 [2] [µM]	Compound	inhibition at 48 h, 50 µM [1] [%]	inhibition at 48 h, 70 µM [3] [%]
4.7	CO/C(=C\c1ccccc1)C(=O)N[C@@H](Cc1ccc(O)cc1)C(=O)O [IOTROCHAMIDES A]	85	
3.4	CO/C(=C\c1ccccc1)C(=O)N[C@@H](Cc1c[nH]c2cc(Br)ccc12)C(=O)O [IOTROCHAMIDES B]		100
